Values of other authors as cited in US9215889B2, “Steviol glycoside” (MORITA KAGAKU KOGYO CO., LTD., priority 2008, dated 2015).

Conditions: for taste quality (in words): background comparison of ST and RA

In the case of `C=C1C[C@@]23CC[C@H]4[C@@](C)(CCC[C@@]4(C)C(=O)O[C@@H]4O[C@H](CO)[C@@H](O)[C@H](O)[C@H]4O)[C@@H]2CC[C@]1(O[C@@H]1O[C@H](CO)[C@@H](O)[C@H](O[C@@H]2O[C@H](CO)[C@@H](O)[C@H](O)[C@H]2O)[C@H]1O[C@@H]1O[C@H](CO)[C@@H](O)[C@H](O)[C@H]1O)C3` [RA, Rebaudioside A], the “taste quality (in words)” value is given as “good quality of sweetness”.
In the case of `C=C1C[C@@]23CC[C@H]4[C@@](C)(CCC[C@@]4(C)C(=O)O[C@@H]4O[C@H](CO)[C@@H](O)[C@H](O)[C@H]4O)[C@@H]2CC[C@]1(O[C@@H]1O[C@H](CO)[C@@H](O)[C@H](O)[C@H]1O[C@@H]1O[C@H](CO)[C@@H](O)[C@H](O)[C@H]1O)C3` [ST, Stevioside], the “taste quality (in words)” value is listed as “an unpleasant taste of bitterness remains in the mouth” and the degree of sweetness (relative to sucrose) is listed as 300 times that of sucrose.
